Assay results from US20110212218A1, “Method for modulating animal digestive tract microbiota and feed composition comprising bark extract” (UPM-KYMMENE CORPORATION, priority 2009, published 2011).
Where two headings read alike, the source gives them in different places.

System: ileal microbial metabolism
Assay: Broiler ileal simulation in vitro, SCFA production
Format: cell-based, broilers

Structure (SMILES): CC[C@@H](C(=O)O)[C@@H]1O[C@@H]([C@@H](C)[C@H](O)[C@H](C)C(=O)[C@H](CC)[C@H]2O[C@]3(C=C[C@@H](O)[C@]4(CC[C@@](C)([C@H]5CC[C@](O)(CC)[C@H](C)O5)O4)O3)[C@H](C)C[C@@H]2C)[C@@H](C)C[C@@H]1C [Narasin]
- total production of short chain fatty acids (SCFA) (ileal simulation, 12 hours (FIG. 6)): decreased

Structure (SMILES): C=C(C)[C@@H]1CC[C@]2(CO)CC[C@]3(C)[C@H](CC[C@@H]4[C@@]5(C)CC[C@H](O)C(C)(C)[C@@H]5CC[C@]43C)[C@@H]12 [fraction C, betulinol]
- total production of short chain fatty acids (SCFA): increased
